The source made the active and inactive calls.
Tests used:
MDA-MB-231 [1] = test: Antiproliferative activity against human MDA-MB-231 cells assessed as cell growth inhibition
MCF7 [2] = test: Inhibition of colony formation in human MCF7 cells at 4 uM incubated for 10 days in presence of 1:1 of compound:Olaparib by crystal violet staining based assay; format: functional, cell-based; settings: time 10.0 day
MDA-MB-231 [3] = test: Induction of cell cycle arrest at S phase in human MDA-MB-231 cells at 4 uM by Annexin-V-FLUOS staining based flow cytometry; format: functional
MCF7 [4] = test: Induction of cell cycle arrest at G2/M phase in human MCF7 cells at 4 uM in presence of 1:1 of compound:Olaparib by Annexin-V-FLUOS staining based flow cytometry; format: functional
MDA-MB-231 [5] = test: Antiproliferation activity against human MDA-MB-231 cells assessed as decrease in Ki67 expression at 4 uM incubated for 48 hrs in presence of 1:1 of compound:Olaparib by immunofluorescence analysis; format: functional, cell-based
MDA-MB-231 [6] = test: Induction of apoptosis in human MDA-MB-231 cells assessed as increase in cleaved caspase-3 level at 4 uM incubated for 2 days in presence of 1:1 of compound:Olaparib by immunoblot analysis; format: functional, cell-based; settings: time 2.0 day
MCF7 [7] = test: Induction of apoptosis in human MCF7 cells assessed as increase in Bax level at 4 uM incubated for 2 days in presence of 1:1 of compound:Olaparib by immunoblot analysis; format: functional, cell-based; settings: time 2.0 day
MDA-MB-231 [8] = test: Antimigratory activity against human MDA-MB-231 cells at 4 uM incubated for 1 hr in presence of 1:1 of compound:Olaparib by wound healing assay; format: functional, cell-based
MDA-MB-231 [9] = test: Antimigratory activity in human MDA-MB-231 cells assessed as upregulation of E-cadherin level at 4 uM in presence of 1:1 of compound:Olaparib by DAPI staining based immunofluorescence analysis; format: functional, cell-based
MCF7 [10] = test: Antimigratory activity in human MCF7 cells assessed as upregulation of E-cadherin level at 4 uM by DAPI staining based immunofluorescence analysis; format: functional, cell-based
MDA-MB-231 [11] = test: Antimigratory activity in human MDA-MB-231 cells assessed as downregulation of MMP-2 level at 4 uM in presence of 1:1 of compound:Olaparib by DAPI staining based immunofluorescence analysis; format: functional, cell-based
MCF7 [12] = test: Antimigratory activity in human MCF7 cells assessed as downregulation of MMP-2 level at 4 uM by DAPI staining based immunofluorescence analysis; format: functional, cell-based
MCF7 [13] = test: Antimigratory activity in human MCF7 cells assessed as downregulation of MMP-2 level at 4 uM in presence of 1:1 of compound:Olaparib by DAPI staining based immunofluorescence analysis; format: functional, cell-based
MDA-MB-231 [14] = test: Antimigratory activity in human MDA-MB-231 cells assessed as upregulation of E-cadherin level at 4 uM incubated for 2 days in presence of 1:1 of compound:Olaparib by immunoblot analysis; format: functional, cell-based; settings: time 2.0 day
MCF7 [15] = test: Antimigratory activity in human MCF7 cells assessed as upregulation of E-cadherin level at 4 uM incubated for 2 days by immunoblot analysis; format: functional, cell-based; settings: time 2.0 day
MDA-MB-231 [16] = test: Downregulation of Olaparib-induced PAR expression in human MDA-MB-231 cells at 4 uM incubated for 2 days by Western blot analysis; format: functional, cell-based; settings: time 2.0 day
MCF7 [17] = test: Downregulation of Olaparib-induced PAR expression in human MCF7 cells at 4 uM incubated for 2 days by Western blot analysis; format: functional, cell-based; settings: time 2.0 day
MDA-MB-231 [18] = test: Induction of DNA damage in human MDA-MB-231 cells assessed as increase in comet tail length at 4 uM in presence 1:1 of Olaparib by alkaline comet assay; format: functional, cell-based
MCF7 [19] = test: Induction of DNA damage in human MCF7 cells assessed as increase in gamma-H2AX level at 4 uM incubated for 48 hrs by DAPI staining based immunofluorescence analysis; format: functional, cell-based
MCF7 [20] = test: Induction of DNA damage in human MCF7 cells assessed as increase in gamma-H2AX level at 4 uM incubated for 48 hrs in presence of 1:1 of compound:Olaparib by DAPI staining based immunofluorescence analysis; format: functional, cell-based
MCF7 [21] = test: Induction of HR DNA repair in human MCF7 cells assessed as decrease in RAD51 level at 4 uM incubated for 48 hrs in presence of 1:1 of compound:Olaparib by DAPI staining based immunofluorescence analysis; format: functional, cell-based
MDA-MB-231 [22] = test: Antiinvasive activity against human MDA-MB-231 cells at 4 uM incubated for 12 hrs in presence of 1:1 of compound:Olaparib by transwell assay; format: functional, cell-based
MCF7 [23] = test: Antiinvasive activity against human MCF7 cells at 4 uM incubated for 12 hrs in presence of 1:1 of compound:Olaparib by transwell assay; format: functional, cell-based
MDA-MB-231 [24] = test: Antiproliferation activity against human MDA-MB-231 cells xenografted in BALB/c nude mouse assessed as decrease in Ki67 expression at 50 mg/kg, po for 14 days in presence of 1:1 of compound:Olaparib by H and E staining based IHC analysis; format: functional, organism-based; settings: time 14.0 day
[25] = target: Vascular endothelial growth factor receptor 1 (Homo sapiens, UniProt P17948); test: Inhibition of VEGFR1 phosphorylation at tyr1333 residue in human MDA-MB-231 cells xenografted in BALB/c nude mouse at 50 mg/kg, po for 14 days in presence of 1:1 of compound:Olaparib by H and E staining based IHC analysis; format: organism-based; settings: time 14.0 day
Sequence of Vascular endothelial growth factor receptor 1 (P17948 whole entry): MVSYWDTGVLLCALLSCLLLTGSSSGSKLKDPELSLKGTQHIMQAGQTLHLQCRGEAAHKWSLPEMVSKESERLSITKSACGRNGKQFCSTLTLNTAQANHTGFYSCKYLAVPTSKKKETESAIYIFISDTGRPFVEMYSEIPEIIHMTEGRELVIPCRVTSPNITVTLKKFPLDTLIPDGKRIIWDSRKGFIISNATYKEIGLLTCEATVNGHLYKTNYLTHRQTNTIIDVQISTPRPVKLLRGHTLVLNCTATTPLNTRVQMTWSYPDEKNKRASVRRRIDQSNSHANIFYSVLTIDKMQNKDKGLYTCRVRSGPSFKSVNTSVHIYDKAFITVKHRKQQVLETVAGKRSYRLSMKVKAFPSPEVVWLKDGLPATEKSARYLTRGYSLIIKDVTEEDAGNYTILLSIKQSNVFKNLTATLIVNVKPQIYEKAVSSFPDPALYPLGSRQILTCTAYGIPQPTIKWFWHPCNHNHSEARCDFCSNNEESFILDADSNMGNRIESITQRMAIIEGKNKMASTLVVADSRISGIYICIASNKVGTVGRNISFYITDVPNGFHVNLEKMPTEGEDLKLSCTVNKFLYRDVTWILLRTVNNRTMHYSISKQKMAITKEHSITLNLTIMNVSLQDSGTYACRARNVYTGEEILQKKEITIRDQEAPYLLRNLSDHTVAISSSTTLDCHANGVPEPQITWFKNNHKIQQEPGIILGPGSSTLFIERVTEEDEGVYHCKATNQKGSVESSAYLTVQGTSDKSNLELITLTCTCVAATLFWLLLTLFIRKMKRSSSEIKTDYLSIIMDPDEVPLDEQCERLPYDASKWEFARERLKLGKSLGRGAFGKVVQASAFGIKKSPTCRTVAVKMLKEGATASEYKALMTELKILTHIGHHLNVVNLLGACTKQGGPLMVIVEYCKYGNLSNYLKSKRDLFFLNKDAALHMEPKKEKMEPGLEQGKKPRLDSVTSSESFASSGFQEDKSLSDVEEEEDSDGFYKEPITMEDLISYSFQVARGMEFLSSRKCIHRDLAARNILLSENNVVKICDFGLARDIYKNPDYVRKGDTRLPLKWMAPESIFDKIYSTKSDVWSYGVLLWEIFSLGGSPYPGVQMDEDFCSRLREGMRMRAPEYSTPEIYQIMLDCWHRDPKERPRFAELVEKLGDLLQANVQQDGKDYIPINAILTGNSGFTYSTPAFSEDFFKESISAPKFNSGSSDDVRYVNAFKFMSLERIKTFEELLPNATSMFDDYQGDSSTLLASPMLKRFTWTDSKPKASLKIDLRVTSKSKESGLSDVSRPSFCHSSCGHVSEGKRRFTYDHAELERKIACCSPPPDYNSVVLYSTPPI

[26] = target: Poly [ADP-ribose] polymerase 1 (Homo sapiens, UniProt P09874); test: Inhibition of PARP1 in human MDA-MB-231 cells xenografted in BALB/c nude mouse at 50 mg/kg, po for 14 days in presence of 1:1 of compound:Olaparib by H and E staining based IHC analysis; format: organism-based; settings: time 14.0 day
Sequence of Poly [ADP-ribose] polymerase 1 (P09874 whole entry): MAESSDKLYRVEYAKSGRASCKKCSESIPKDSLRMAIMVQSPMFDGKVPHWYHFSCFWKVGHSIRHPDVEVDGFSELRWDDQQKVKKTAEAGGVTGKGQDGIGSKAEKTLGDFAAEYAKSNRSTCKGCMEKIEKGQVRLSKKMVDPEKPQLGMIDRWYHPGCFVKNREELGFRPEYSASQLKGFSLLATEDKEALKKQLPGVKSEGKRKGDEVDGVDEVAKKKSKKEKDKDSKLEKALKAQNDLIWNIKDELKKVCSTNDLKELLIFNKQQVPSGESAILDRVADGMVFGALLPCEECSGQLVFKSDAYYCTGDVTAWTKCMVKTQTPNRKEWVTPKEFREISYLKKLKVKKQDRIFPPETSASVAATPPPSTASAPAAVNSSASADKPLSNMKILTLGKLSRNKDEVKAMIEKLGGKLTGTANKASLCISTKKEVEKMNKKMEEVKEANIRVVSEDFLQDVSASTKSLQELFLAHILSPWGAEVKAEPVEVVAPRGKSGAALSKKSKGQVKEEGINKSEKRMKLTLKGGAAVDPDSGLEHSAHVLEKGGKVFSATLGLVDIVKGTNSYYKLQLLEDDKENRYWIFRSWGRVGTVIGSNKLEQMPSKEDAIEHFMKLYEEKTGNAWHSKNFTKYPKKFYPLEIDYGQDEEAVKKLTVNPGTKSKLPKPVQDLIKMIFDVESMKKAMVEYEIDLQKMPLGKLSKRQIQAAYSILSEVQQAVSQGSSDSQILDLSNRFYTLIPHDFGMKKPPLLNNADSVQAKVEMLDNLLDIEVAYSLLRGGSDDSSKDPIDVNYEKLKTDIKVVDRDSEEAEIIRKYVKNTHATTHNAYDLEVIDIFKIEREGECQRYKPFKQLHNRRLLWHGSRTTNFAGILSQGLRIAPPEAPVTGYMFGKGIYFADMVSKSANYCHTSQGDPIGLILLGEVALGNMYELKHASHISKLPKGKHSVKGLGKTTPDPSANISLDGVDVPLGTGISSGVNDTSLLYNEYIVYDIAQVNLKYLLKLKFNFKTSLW

MDA-MB-231 [27] = test: Antimigratory activity in human MDA-MB-231 cells xenografted in BALB/c nude mouse assessed as downregulation of MMP2 level at 50 mg/kg, po for 14 days in presence of 1:1 of compound:Olaparib by H and E staining based IHC analysis; format: functional, organism-based; settings: time 14.0 day
MDA-MB-231 [28] = test: Antimigratory activity in human MDA-MB-231 cells xenografted in BALB/c nude mouse assessed as upregulation of E-cadherin level at 50 mg/kg, po for 14 days in presence of 1:1 of compound:Olaparib by H and E staining based IHC analysis; format: functional, organism-based; settings: time 14.0 day
MDA-MB-231 [29] = test: Induction of HR DNA repair in human MDA-MB-231 cells xenografted in BALB/c nude mouse assessed as decrease in BRCA1 level at 50 mg/kg, po for 14 days in presence of 1:1 of compound:Olaparib by Western blot analysis; format: functional, organism-based; settings: time 14.0 day
MDA-MB-231 [30] = test: Induction of HR DNA repair in human MDA-MB-231 cells xenografted in BALB/c nude mouse assessed as decrease in FOXM1 level at 50 mg/kg, po for 14 days in presence of 1:1 of compound:Olaparib by H and E staining based IHC analysis; format: functional, organism-based; settings: time 14.0 day
MDA-MB-231 [31] = test: Antimetastatic activity against human MDA-MB-231 cells xenografted in lungs of BALB/c nude mouse assessed as decrease in lung metastatic nodules at 50 mg/kg administered once a day measured after 14 days in presence of 1:1 of compound:Olaparib by H and E staining based analysis; format: functional, organism-based; settings: time 14.0 day
MDA-MB-231 [32] = test: Antimigratory activity in human MDA-MB-231 cells xenografted in lungs of BALB/c nude mouse assessed as decrease in MMP2 level in lungs at 50 mg/kg administered once a day measured after 14 days in presence of 1:1 of compound:Olaparib by IHC analysis; format: functional, organism-based; settings: time 14.0 day

Cc1ccc(Nc2nccc(N(C)c3ccc4c(C)n(C)nc4c3)n2)cc1S(N)(=O)=O [PAZOPANIB]
> 10 µM: IC50 (MDA-MB-231 [1])
inactive: Activity (MDA-MB-231 [16]) | Activity (MCF7 [17])
active: inhibition (MCF7 [2]) | Activity (MDA-MB-231 [3]) | Activity (MCF7 [4]) | Activity (MDA-MB-231 [5]) | Activity (MDA-MB-231 [6]) | Activity (MCF7 [7]) | Activity (MDA-MB-231 [8]) | Activity (MDA-MB-231 [9]) | Activity (MCF7 [10]) | Activity (MDA-MB-231 [11]) | Activity (MCF7 [12]) | Activity (MCF7 [13]) | Activity (MDA-MB-231 [14]) | Activity (MCF7 [15]) | Activity (MDA-MB-231 [18]) | Activity (MCF7 [19]) | Activity (MCF7 [20]) | Activity (MCF7 [21]) | Activity (MDA-MB-231 [22]) | Activity (MCF7 [23]) | Activity (MDA-MB-231 [24]) | inhibition [25] | inhibition [26] | Activity (MDA-MB-231 [27]) | Activity (MDA-MB-231 [28]) | Activity (MDA-MB-231 [29]) | Activity (MDA-MB-231 [30]) | Activity (MDA-MB-231 [31]) | Activity (MDA-MB-231 [32])

Source: ChEMBL document CHEMBL5321287, “Discovery, Synthesis, and Evaluation of Novel Dual Inhibitors of a Vascular Endothelial Growth Factor Receptor and Poly(ADP-Ribose) Polymerase for BRCA Wild-Type Breast Cancer Therapy” (J Med Chem, 2023)
